Laboratory results published in US11135223B2, “Compositions and methods for inhibiting Dkk-1” (YALE UNIVERSITY, priority 2016, dated 2021).

System: L. major
Experiment: Leishmania (L.) major infection model
Assay type: in vivo, BALB/c mice
Experimental: FIG. 4, comprising FIG. 4A through FIG. 4H, depicts results of experiments showing functional inhibition of Dkk-1 protects the host from chronic inflammation caused by L. major. FIG. 4A depicts a schematic diagram for Dkk-1 inhibitor treatment (10 μg/kg/time) in six-week-old female BALB/c mice. FIG. 4B depicts analysis of parasite burden in the infected foot from each mouse at day 42. FIG. 4C depicts the lesion size in the infected foot from each mouse at day 42. FIG. 4D depicts the cell count of macrophages in the infected hindfoot of mice two weeks after vehicle (n=5) or Dkk-1 inhibitor treatment (n=5) counted by flow cytometry and compared with infected (untreated) and uninfected BALB/c mice (n=3). FIG. 4E depicts results of draining lymph node cells from each mouse (n=5/group) that were stimulated with sLMAG (soluble leishmania antigen) 2 weeks after infection. FIG. 4F depicts results of draining lymph node cells from each mouse (n=5/group) were stimulated with sLMAG 6 weeks after infection. FIG. 4G depicts the CD4 cell percentage in draining lymph nodes from each group was determined by flow cytometry. FIG. 4H depicts CD4 T cell numbers in draining lymph nodes from each group was determined by flow cytometry. A representative of two independent experiments is shown. Student's t-test and one-way-ANOVA analysis with Dunnet's post-hoc test were performed. **, p<0.005, *, p<0.05.
FIG. 17, comprising FIG. 17A and FIG. 17B, depicts results of experiments showing a Dkk-1 monoclonal antibody treatment protects BALB/c mice from chronic inflammation caused by L. major. FIG. 17A depicts the number lymph node cells were in L. major infected BALB/c mice injected with a Dkk-1 monoclonal antibody or isotype control antibody. BALB/c mice were infected with L. major (2 million parasites/animal) on day 0. Dkk-1 mAb or isotype control antibody (100 μg/injection) was injected intraperitoneally into six-week-old female BALB/c mice on day −1, +1, +3, +5, +7, +9, +11, +14 (n=6). On day 14, mice were sacrificed, and their drained lymph node cells were counted. Student's t-test was performed. *,p<0.05. FIG. 17B depicts the lesion size in BALB/c mice injected with a Dkk-1 monoclonal antibody or isotype control antibody. Six-week-old female BALB/c mice were infected with L.major, and DKK-1 mAb was treated intraperitoneally on day −1, +1, +3, +5, +7, +9, +11, +14, +21 and +28. Lesion size for each mouse was measured on day 12, 22, and 32. Student's t-test was performed. *, p<0.05.
L. major WR309 strain (MHOM/IL/79/LRC-L251) was originally isolated from a human case of cutaneous leishmaniasis in Israel and has been maintained through culture and frequent passages in mice to maintain virulence. BALB/c mice were infected with 2×10^6 late stationary promastigotes isolated from a Percoll gradient. For monitoring 2 week and 6 week experiments, Dkk-1 inhibitor (10 mg/kg) or vehicle (50 μl DMSO) was injected on day −1, +1, +3, +5, +7, +9, +11 and weekly afterwards till harvest. Draining lymph nodes, nondraining lymph nodes, and plasma were collected. For ex vivo analysis, soluble Leishmania major antigen (sLMAg) was employed. Single cell suspension of draining and non-draining lymph node cells was incubated with sLMAg (equivalent to 5×10^6 organisms/ml final) for 96 hr. Supernatants were harvested and analyzed by ELISA assays. For depleting platelets, 80 μg of anti-CD42 mAb (Emfret Analytical) was injected intravenously in 100 μl PBS. Equal amounts of isotype-matched control Ab (eBioscience) was used for control group animals. Tissues from mice were harvested on day 3 post-infection for analysis.
To determine the ability of an anti-Dkk-1 monoclonal antibody (Dkk-1 mAb) to protect BALB/c mice against chronic inflammation caused by L. major, 6-week old BALB/c mice were infected with L.major (2 million parasites/animal) on day 0. A Dkk-1 mAb or isotype control antibody (100 μg/injection) was injected intraperitoneally on day −1, +1, +3, +5, +7, +9, +11, +14 (n=6). […]

[1] = BALB/c mice, infected foot, 42 days post-infection
[2] = days 14 and 42 post-infection, ex vivo stimulation of draining lymph node cells with sLMAG

`NCC1CCN(c2nccc(-c3ccc4ccccc4c3)n2)CC1` [WAY-262611, (1-(4-(naphthalen-2-yl)pyrimidin-2-yl)piperidin-4-yl)methanamine] was tested, and the “reduction of parasite survival” value (BALB/c mice, 10 mg/kg intraperitoneally, 42 days post-infection) was 11.5 fold, the lesion size [1] was “greatly reduced” and the parasite burden [1] was “greatly reduced”. The “percentage of CD4 T cells in draining lymph nodes (dLN)” value (FIG. 4G) was “did not reduce”, the “number of CD4 T cells in the dLN” value (FIG. 4H) was “reduced” and the IL-4 production [2] was “notably reduced”. The IL-10 production [2] was “notably reduced” and the “Macrophage accumulation following parasite infection” value (infected hindfoot, 14 days after infection) was “diminished”.
